Assay results published in patent US20260109732A1, “LIPID AMINES” (ModernaTX, Inc., priority 2021, published 2026).
Where a name gives a salt, the structure may show the parent alone.

Legend:
[1] = Diameter and PDI from DLS measurements of mRNA nanoparticles with lipid amines; type: physicochemical
Method in brief: (§1)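 Ionizable lipid nanoparticles (IL1:DSPC:cholesterol:PEG-DMG-2K) formed by vortex mixing at pH 4, loaded with luciferase or CFTR mRNA at N:P 4.93, neutralized with TRIS pH 8.12, then modified with lipid amine SA50 at pH 7.5. Particle diameter and PDI read by DLS; mRNA encapsulation by Ribogreen assay.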

[2] = Encapsulation of mRNA nanoparticles with lipid amines using Ribogreen assay; type: physicochemical
Method in brief: as §1

HeLa cells [3] = assay: Luciferase Protein Expression Assay in HeLa Cells; type: cell-based, Human; conditions: LNPs encapsulating Luciferase mRNA, 25 ng per well, N=4 wells; 5 h serum-free then 24 h; ONE-Glo
Method in brief: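 HeLa cells received LNPs carrying luciferase mRNA (25 ng per well) or PBS in serum-free MEM for 5 h, then complete MEM for a further 24 h. Luciferase then read by ONE-Glo luminescence after lysis and reported as average RLU of 4 replicate wells.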

HeLa cells [4] = assay: CFTR Protein Expression Assay in HeLa Cells; type: cell-based, Human; conditions: LNPs encapsulating CFTR mRNA, N=4 wells; 5 h serum-free then 24 h; immunofluorescence vs PBS control
Method in brief: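 HeLa cells dosed with CFTR mRNA LNPs (70 mM NaCl final buffer matrix) in serum-free MEM for 5 h, then complete MEM for 24 h. Fixed cells immunostained with anti-CFTR monoclonal and Alexa 488 secondary, imaged confocally; CFTR intensity per cell expressed as fold-change versus PBS buffer control, N=4 wells.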

[5] = CFTR mRNA nanoparticle with lipid amine
[6] = Luciferase mRNA nanoparticle modified with lipid amine

Question: What does the source list for `CC[C@H](CC[C@@H](C)[C@H]1CC[C@H]2[C@@H]3CC=C4C[C@@H](SSCCC(=O)N(CCCCCCCC(C)N)CCC(C)N)CC[C@]4(C)[C@H]3CC[C@]12C)C(C)C` (stereo partly drawn) [SA178, N-(3-aminobutyl)-N-(8-aminononyl)-3-(((3S,8S,9S,10R,13R,14S,17R)-17-((2R,5R)-5-ethyl-6-methylheptan-2-yl)-10,13-dimethyl-2,3,4,7,8,9,10,11,12,13,14,15,16,17-tetradecahydro-1H-cyclopenta[a]phenanthren-3-yl)disulfaneyl)propanamide dihydrochloride]?
Answer: Diameter (nm) [1, 5]: 83 nm; PDI [1, 5]: 0.26; Diameter (nm) [1, 6]: 75 nm; PDI [1, 6]: 0.20; % Encapsulation (Ribogreen) [2, 5]: 100%; % Encapsulation (Ribogreen) [2, 6]: 98.8%; Average Relative Light Units ± Standard Deviation (HeLa cells [3]): 10196.5 ± 602.4 Relative Light Units; Average fold-change in CFTR signal intensity per cell compared to buffer control ± standard deviation (HeLa cells [4]): 9.8 ± 0.3 fold-change

Question: With `CC[C@H](CC[C@@H](C)[C@H]1CC[C@H]2[C@@H]3CC=C4C[C@@H](SSCCC(=O)N(CCCCCCCC(C)(C)N)CCC(C)(C)N)CC[C@]4(C)[C@H]3CC[C@]12C)C(C)C` [SA179, N-(3-amino-3-methylbutyl)-N-(8-amino-8-methylnonyl)-3-(((3S,8S,9S,10R,13R,14S,17R)-17-((2R,5R)-5-ethyl-6-methylheptan-2-yl)-10,13-dimethyl-2,3,4,7,8,9,10,11,12,13,14,15,16,17-tetradecahydro-1H-cyclopenta[a]phenanthren-3-yl)disulfaneyl)propanamide dihydrochloride] as the molecule, how does the “Diameter (nm)” value [1, 5] read?
Answer: Its value is 73 nm.

Question: And the PDI [1, 5]?
Answer: Its PDI is 0.15.

Question: What about the “Diameter (nm)” value [1, 6] of the same molecule?
Answer: The value was 73 nm.

Question: What about the PDI [1, 6] of the same molecule?
Answer: The PDI was 0.17.

Question: What about the “% Encapsulation (Ribogreen)” value [2, 5] of the same molecule?
Answer: The value was 99.8%.

Question: And the “% Encapsulation (Ribogreen)” value [2, 6]?
Answer: The value was 99.0%.

Question: What about the “Average Relative Light Units ± Standard Deviation” value (HeLa cells [3]) of the same molecule?
Answer: Its value is 12298.9 ± 928.6 Relative Light Units.

Question: What about the “Average fold-change in CFTR signal intensity per cell compared to buffer control ± standard deviation” value (HeLa cells [4]) of the same molecule?
Answer: The value was 7.0 ± 0.6 fold-change.

Question: What does the source list for `CC[C@H](CC[C@@H](C)[C@H]1CC[C@H]2[C@@H]3CC=C4C[C@@H](SSCCC(=O)N(CCCCNCCC(N)(CC)CC)CCC(N)(CC)CC)CC[C@]4(C)[C@H]3CC[C@]12C)C(C)C` [SA181, N-(3-amino-3-ethylpentyl)-N-(4-((3-amino-3-ethylpentyl)amino)butyl)-3-(((3S,8S,9S,10R,13R,14S,17R)-17-((2R,5R)-5-ethyl-6-methylheptan-2-yl)-10,13-dimethyl-2,3,4,7,8,9,10,11,12,13,14,15,16,17-tetradecahydro-1H-cyclopenta[a]phenanthren-3-yl)disulfaneyl)propanamide trihydrochloride]?
Answer: Diameter (nm) [1, 5]: 69 nm; PDI [1, 5]: 0.13; Diameter (nm) [1, 6]: 74 nm; PDI [1, 6]: 0.16; % Encapsulation (Ribogreen) [2, 5]: 98.7%; % Encapsulation (Ribogreen) [2, 6]: 99.5%; Average Relative Light Units ± Standard Deviation (HeLa cells [3]): 12107.3 ± 1481.4 Relative Light Units; Average fold-change in CFTR signal intensity per cell compared to buffer control ± standard deviation (HeLa cells [4]): 6.3 ± 0.4 fold-change

Question: With `CC[C@H](CC[C@@H](C)[C@H]1CC[C@H]2[C@@H]3CC=C4C[C@@H](OC(=O)CCCC(=O)N(CCCCNCCC(N)(CC)CC)CCC(N)(CC)CC)CC[C@]4(C)[C@H]3CC[C@]12C)C(C)C` [SA182, (3S,8S,9S,10R,13R,14S,17R)-17-((2R,5R)-5-ethyl-6-methylheptan-2-yl)-10,13-dimethyl-2,3,4,7,8,9,10,11,12,13,14,15,16,17-tetradecahydro-1H-cyclopenta[a]phenanthren-3-yl 5-((3-amino-3-ethylpentyl)(4-((3-amino-3-ethylpentyl)amino)butyl)amino)-5-oxopentanoate trihydrochloride] as the molecule, how does the “Diameter (nm)” value [1, 5] read?
Answer: Its value is 72 nm.

Question: And the PDI [1, 5]?
Answer: Its PDI is 0.13.

Question: What about the “Diameter (nm)” value [1, 6] of the same molecule?
Answer: Its value is 73 nm.

Question: And the PDI [1, 6]?
Answer: Its PDI is 0.14.

Question: And the “% Encapsulation (Ribogreen)” value [2, 5]?
Answer: The value was 98.0%.

Question: And the “% Encapsulation (Ribogreen)” value [2, 6]?
Answer: Its value is 99.0%.

Question: What about the “Average Relative Light Units ± Standard Deviation” value (HeLa cells [3]) of the same molecule?
Answer: The value was 38564.9 ± 12453 Relative Light Units.

Question: What about the “Average fold-change in CFTR signal intensity per cell compared to buffer control ± standard deviation” value (HeLa cells [4]) of the same molecule?
Answer: The value was 13.2 ± 0.9 fold-change.

Question: With `CC[C@H](CC[C@@H](C)[C@H]1CC[C@H]2[C@@H]3CC=C4C[C@@H](OC(=O)N(CCCCNCCC(N)(CC)CC)CCC(N)(CC)CC)CC[C@]4(C)[C@H]3CC[C@]12C)C(C)C` [SA183, (3S,8S,9S,10R,13R,14S,17R)-17-((2R,5R)-5-ethyl-6-methylheptan-2-yl)-10,13-dimethyl-2,3,4,7,8,9,10,11,12,13,14,15,16,17-tetradecahydro-1H-cyclopenta[a]phenanthren-3-yl (3-amino-3-ethylpentyl)(4-((3-amino-3-ethylpentyl)amino)butyl)carbamate trihydrochloride] as the molecule, how does the “Diameter (nm)” value [1, 5] read?
Answer: The value was 71 nm.

Question: And the PDI [1, 5]?
Answer: The PDI was 0.14.

Question: What about the “Diameter (nm)” value [1, 6] of the same molecule?
Answer: Its value is 76 nm.

Question: What about the PDI [1, 6] of the same molecule?
Answer: Its PDI is 0.21.

Question: And the “% Encapsulation (Ribogreen)” value [2, 5]?
Answer: The value was 99.0%.

Question: And the “% Encapsulation (Ribogreen)” value [2, 6]?
Answer: Its value is 99.6%.

Question: What about the “Average Relative Light Units ± Standard Deviation” value (HeLa cells [3]) of the same molecule?
Answer: The value was 33915.2 ± 6639.9 Relative Light Units.

Question: And the “Average fold-change in CFTR signal intensity per cell compared to buffer control ± standard deviation” value (HeLa cells [4])?
Answer: The value was 13.6 ± 0.7 fold-change.

Question: For `CCC(N)(CC)CCNCCCCN(CCC(N)(CC)CC)C(=O)CCSS[C@H]1CC[C@@]2(C)C(=CC[C@H]3[C@@H]4CC[C@H]([C@H](C)CCCC(C)C)[C@@]4(C)CC[C@@H]32)C1` [SA184, N-(3-amino-3-ethylpentyl)-N-(4-((3-amino-3-ethylpentyl)amino)butyl)-3-(((3S,8S,9S,10R,13R,14S,17R)-10,13-dimethyl-17-((R)-6-methylheptan-2-yl)-2,3,4,7,8,9,10,11,12,13,14,15,16,17-tetradecahydro-1H-cyclopenta[a]phenanthren-3-yl)disulfaneyl)propanamide trihydrochloride], which “Diameter (nm)” value [1, 5] is on record?
Answer: Its value is 71 nm.

Question: And the PDI [1, 5]?
Answer: Its PDI is 0.13.

Question: And the “Diameter (nm)” value [1, 6]?
Answer: The value was 74 nm.

Question: What about the PDI [1, 6] of the same molecule?
Answer: The PDI was 0.12.

Question: And the “% Encapsulation (Ribogreen)” value [2, 5]?
Answer: Its value is 99.0%.

Question: And the “% Encapsulation (Ribogreen)” value [2, 6]?
Answer: Its value is 98.8%.

Question: And the “Average Relative Light Units ± Standard Deviation” value (HeLa cells [3])?
Answer: The value was 26222.4 ± 4612.1 Relative Light Units.

Question: What about the “Average fold-change in CFTR signal intensity per cell compared to buffer control ± standard deviation” value (HeLa cells [4]) of the same molecule?
Answer: Its value is 11.3 ± 0.7 fold-change.

Question: With `CCC(N)(CC)CCNCCCCN(CCC(N)(CC)CC)C(=O)CCCC(=O)O[C@H]1CC[C@@]2(C)C(=CC[C@H]3[C@@H]4CC[C@H]([C@H](C)CCCC(C)C)[C@@]4(C)CC[C@@H]32)C1` [SA185, (3S,8S,9S,10R,13R,14S,17R)-10,13-dimethyl-17-((R)-6-methylheptan-2-yl)-2,3,4,7,8,9,10,11,12,13,14,15,16,17-tetradecahydro-1H-cyclopenta[a]phenanthren-3-yl 5-((3-amino-3-ethylpentyl)(4-((3-amino-3-ethylpentyl)amino)butyl)amino)-5-oxopentanoate trihydrochloride] as the molecule, how does the “Diameter (nm)” value [1, 5] read?
Answer: The value was 73 nm.

Question: And the PDI [1, 5]?
Answer: Its PDI is 0.16.

Question: What about the “Diameter (nm)” value [1, 6] of the same molecule?
Answer: The value was 75 nm.

Question: What about the PDI [1, 6] of the same molecule?
Answer: The PDI was 0.16.

Question: And the “% Encapsulation (Ribogreen)” value [2, 5]?
Answer: The value was 98.6%.

Question: What about the “% Encapsulation (Ribogreen)” value [2, 6] of the same molecule?
Answer: Its value is 99.4%.

Question: And the “Average Relative Light Units ± Standard Deviation” value (HeLa cells [3])?
Answer: Its value is 36168.3 ± 7638.9 Relative Light Units.

Question: And the “Average fold-change in CFTR signal intensity per cell compared to buffer control ± standard deviation” value (HeLa cells [4])?
Answer: Its value is 14.2 ± 1.0 fold-change.
